We go through 15 compounds from patent US4238496A, “4-Substituted thiazolyl-2-oxamic acids and salts and esters thereof” (Boehringer Ingelheim GmbH, priority 1978, dated 1980).

This experiment concerns Passive Cutaneous Anaphylaxis. Briefly: Passive Cutaneous Anaphylaxis test (PCA) in rats. The experiment is classed as in vivo. The settings on record: Rattus norvegicus, read-out: ED50 (dose reducing the size of the blued area by 50%). How it is done:
The compounds of the present invention, that is, those embraced by formula I and their non-toxic, pharmacologically acceptable salts, have useful pharmacodynamic properties.
The anti-allergic properties were ascertained in rats by the Passive Cutaneous Anaphylaxis test (PCA) essentially as described by Goose and Blair (Immunology 16: 749-760,1969). Rat serum was diluted so that the skin reactions with diameters between 10 and 15 mm in unsensitized rats were produced. The PCA test was performed in duplicate by injecting 0.1 ml of this antiserum dilution on each side of the shaved back of rats. Rats so treated were injected intravenously (i.v.) twenty-four hours later with 5 mg ovalbumin in 0.5 ml of 2% Evans Blue and the test substance to be tested by the i.v. route. In the case of substances tested orally, the i.v. ovalbumin challenge was 0.015 mg in the 0.5 ml of 2% Evans Blue solution administered 20-30 minutes after the oral administration of the test substance. Thirty minutes after challenge the rats were killed by CO2 asphyxiation and the skin reflected the diameters, in millimeters, of the blued areas were measured and the mean diameter determined. The circular area was calculated and the mean area in square millimeters of the control group was considered as 100% and the results of the compound test groups were expressed as a percentage change from these control values. From dose response curves the dose reducing the size of the blued area by 50% (ED50) was estimated.

The mark [1] stands for this setting: p.o., 0.015 mg ovalbumin i.v. challenge 20-30 minutes after oral administration.
The mark [2] stands for this setting: iv, test substance given i.v. with 5 mg ovalbumin in 0.5 ml of 2% Evans Blue.

Counter-ions that a name gives are not always drawn. Like-named read-outs stand apart in the source and are kept apart here.

`CCOC(=O)C(=O)Nc1nc(-c2ccc(OCC)cc2)cs1` [Ethyl 4-(4'-ethoxy-phenyl)-thiazolyl-2-oxamate]: under setting [1], the median effective dose (ED50) stood at 2.07 mg/kg.

For the compound `COc1ccc(-c2csc(NC(=O)C(=O)O)n2)cc1OC` [4-(3',4'-dimethoxy-phenyl)-thiazolyl-2-oxamic acid], under setting [2], the ED50 was determined as 0.13 mg/kg.

Turning to `COC(=O)C(=O)Nc1nc(-c2ccc(OC)c(OC)c2)cs1` [Methyl 4-(3',4'-dimethoxy-phenyl)-thiazolyl-2-oxamate], the ED50 under setting [1] was 1.2 mg/kg.

For the compound `O=C(O)C(=O)Nc1nc(-c2ccncc2)cs1` [4-[pyridyl-(4')]-thiazolyl-2-oxamic acid ethanolamine salt], the ED50 under setting [2] is 0.05 mg/kg.

`COc1ccccc1-c1csc(NC(=O)C(=O)O)n1` [4-(2'-Methoxy-phenyl)-thiazolyl-2-oxamic acid]: under setting [2], the ED50 was determined as 1.08 mg/kg.

For `COc1ccc(OC)c(-c2csc(NC(=O)C(=O)O)n2)c1` [4-(2',5'-dimethoxy-phenyl)-thiazolyl-2-oxamic acid ethanolamine salt], under setting [2], the ED50 is 0.4 mg/kg.

For the compound `COc1ccc(-c2csc(NC(=O)C(=O)O)n2)c(OC)c1` [4-(2',4'4'-dimethoxy-phenyl)-thiazolyl-2-oxamic acid], the ED50 under setting [2] stood at 0.39 mg/kg.

For `O=C(O)C(=O)Nc1nc(-c2cccnc2)cs1` [4-[pyridyl-(3')]-thiazolyl-2-oxamic acid ethanolamine salt], the ED50 under setting [2] came to 0.16 mg/kg.

For `COc1cccc(-c2csc(NC(=O)C(=O)O)n2)c1` [4-(3'-methoxy-phenyl)-thiazolyl-2-oxamic acid], the ED50 stood at 0.16 mg/kg under setting [2] and 2 mg/kg under setting [1].

Turning to `CN(C)c1cccc(-c2csc(NC(=O)C(=O)O)n2)c1` [4-(3' -dimethylamino-phenyl)-thiazolyl-2-oxamic acid ethanolamine salt], the ED50 runs as follows: under setting [2], 0.34 mg/kg; under setting [1], 1.06 mg/kg.

Consider `CN(C)c1ccc(-c2csc(NC(=O)C(=O)O)n2)cc1` [4-(4'-dimethylamino-phenyl)-thiazolyl-2-oxamic acid], for which the ED50 turned out to be 0.02 mg/kg under setting [2] and 0.34 mg/kg under setting [1].

With `CCOC(=O)C(=O)Nc1nc(-c2ccncc2)cs1` [Ethyl 4-[pyridyl-($')]-thiazolyl-2-oxamate], the ED50 under setting [1] is 1.2 mg/kg.

As to `CCOC(=O)C(=O)Nc1nc(-c2ccc(O)c(C)c2)cs1` [Ethyl 4-(3'-methyl-4'-hydroxy-phenyl)-thiazolyl-2-oxamate], under setting [1], the ED50 came out at 2.1 mg/kg.

As to `Cc1sc(NC(=O)C(=O)O)nc1-c1ccccc1` [4-phenyl-5-methyl-thiazolyl-2-oxamic acid], the ED50 is, setting by setting: under setting [2], 0.19 mg/kg; under setting [1], 2.04 mg/kg.

For the compound `O=C(O)C(=O)Nc1nc(-c2ccc3c(c2)OCCO3)cs1` [4-(benzodioxanyl)-thiazolyl-2-oxamic acid ethanolamine salt], the ED50 reads like this: under setting [2], 0.02 mg/kg; under setting [1], 0.7 mg/kg.
